US5422344A, “Method of treating retroviral infections in mammals” (The United States of America as represented by the …, priority 1990, dated 1995)
Entries after “also recorded” stand apart in the source; their conditions may differ.

Experiments:
[1] = tested on: HIV-IIIB (HIV-1) replication in H9 cells; experiment: HIV replication (RT activity) in acute infection of H9 cells; assay type: cell-based; conditions: for effect on HIV replication: non-cytotoxic doses of topo II inhibitors added during HIV infection
Description: HIV-Acute Infection of H9 Cells by HIV and Drug Treatment: One ml of culture supernatant of H9/HIV-IIIB cells (10^6 /ml) was used after centrifugation (200xg, 20 min) and filtration (0.45 μm) for infecting 10^5 H9 cells in the presence or absence of different levels of CPT, m-AMSA or VP-16. Control cells received equivalent volumes of DMSO. The cells were incubated for 1 h at 37° C., pelleted, washed and resuspended in fresh media. […] (1981) J. Virol. 38: 239-48.
CPT Inhibition of HIV Replication Following Acute Infection of H9 Cells with HIV-IIIB. In order to determine appropriate concentrations of CPT which would permit cell viability and growth while inhibiting viral infection or replication, H9 cells were infected with HIV-IIIB as described above in the absence or presence of different CPT doses. The cells were incubated for 1 h at 37° C., pelleted, washed and resuspended in fresh media. Reverse transcriptase (RT) activity in the culture media was measured seven days after infection.
Since CPT is an anticancer drug and a known topo I inhibitor, its effects on HIV replication were compared to those of other anticancer drugs which are known to inhibit the related topoisomerase II enzyme.

H9 cells = experiment: Cell number, viability (trypan blue dye exclusion) and growth of H9 cells; assay type: cell-based
HIV [2] = conditions: chronically infected cell lines; cited from earlier work
HIV [3] = conditions: cited from earlier work
[4] = 0.5 μM VP16, day 6 post-infect.
[5] = 0.5 μM VP16, day 7 post-infect.
[6] = 0.5 μM VP16, day 8 post-infect.
[7] = 0.5 μM VP16, day 9 post-infect.
[8] = 1.5 μM VP16, day 6 post-infect.
[9] = 1.5 μM VP16, day 7 post-infect.
[10] = 1.5 μM VP16, day 8 post-infect.
[11] = 1.5 μM VP16, day 9 post-infect.
[12] = 0.4 μM m-Amsa, day 6 post-infect.
[13] = 0.4 μM m-Amsa, day 7 post-infect.
[14] = 0.4 μM m-Amsa, day 8 post-infect.
[15] = 0.4 μM m-Amsa, day 9 post-infect.
[16] = 1 μM m-Amsa, day 6 post-infect.
[17] = 1 μM m-Amsa, day 7 post-infect.
[18] = 1 μM m-Amsa, day 8 post-infect.
[19] = 1 μM m-Amsa, day 9 post-infect.

COc1cc(C2c3cc4c(cc3C(OC3OC5COC(C)OC5C(O)C3O)C3COC(=O)C23)OCO4)cc(OC)c1O (stereo not shown) [VP-16]
RT/Cell [1, 4]: 26283 cpm/10^5 cells
RT/Cell [1, 5]: 26143 cpm/10^5 cells
RT/Cell [1, 6]: 29158 cpm/10^5 cells
RT/Cell [1, 7]: 25183 cpm/10^5 cells
RT/Cell [1, 8]: 32242 cpm/10^5 cells
RT/Cell [1, 9]: 33626 cpm/10^5 cells
RT/Cell [1, 10]: 30675 cpm/10^5 cells
RT/Cell [1, 11]: 29194 cpm/10^5 cells
effect on HIV replication [1]: No effect on HIV replication was observed; also recorded: do not have any significant effect on HIV replication
No. Cells (H9 cells; [4]): 1 × 10^6
No. Cells (H9 cells; [5]): 1.6 × 10^6
No. Cells (H9 cells; [6]): 2.4 × 10^6
No. Cells (H9 cells; [7]): 3 × 10^6
No. Cells (H9 cells; [8]): 1 × 10^6
No. Cells (H9 cells; [9]): 2 × 10^6
No. Cells (H9 cells; [10]): 2.4 × 10^6
No. Cells (H9 cells; [11]): 4 × 10^6

COc1cc(NS(C)(=O)=O)ccc1Nc1c2ccccc2nc2ccccc12 [m-AMSA]
RT/Cell [1, 12]: 36070 cpm/10^5 cells
RT/Cell [1, 13]: 25372 cpm/10^5 cells
RT/Cell [1, 14]: 38594 cpm/10^5 cells
RT/Cell [1, 15]: 37556 cpm/10^5 cells
RT/Cell [1, 16]: 32674 cpm/10^5 cells
RT/Cell [1, 17]: 40057 cpm/10^5 cells
RT/Cell [1, 18]: 45558 cpm/10^5 cells
RT/Cell [1, 19]: 36442 cpm/10^5 cells
effect on HIV replication [1]: do not have any significant effect on HIV replication
effect on HIV replication ([1]; listed as m-Amsa): No effect on HIV replication was observed
No. Cells (H9 cells; [12]): 4 × 10^5
No. Cells (H9 cells; [13]): 9 × 10^5
No. Cells (H9 cells; [14]): 1.3 × 10^6
No. Cells (H9 cells; [15]): 2 × 10^6
No. Cells (H9 cells; [16]): 4 × 10^5
No. Cells (H9 cells; [17]): 7.5 × 10^5
No. Cells (H9 cells; [18]): 1.1 × 10^6
No. Cells (H9 cells; [19]): 2 × 10^6

interferon α
suppression of HIV expression (HIV [2]): reported to suppress HIV expression in chronically infected cell lines

Cc1cn(C2CC(N=[N+]=[N-])C(CO)O2)c(=O)[nH]c1=O (stereo not shown) [AZT]
block of HIV infection at cell surface or at the level of reverse transcriptase (HIV [3]): known to block HIV infection
